# Strand notation (5' to 3'): a small letter for the sugar, then the base; units joined by * are phosphorothioate-linked, units joined directly phosphodiester-linked; [ ] holds rarer units or linkages, { } end groups; capitals alone tell only the bases. e = 2'-O-(2-methoxyethyl) (MOE); k = constrained ethyl (cEt); [5mC] = 5-methylcytosine; d = 2'-deoxy (DNA); m = 2'-O-methyl
# Test system: Yap1 mRNA
# Experiment: Antisense inhibition of human Yap1 in SNU-449 cells by modified oligonucleotides, single dose (Example 5, RTS36584)
# Assay type: cell-based
# In short: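 SNU-449 cells (10,000/well) took up 2,000 nM oligonucleotide by free uptake for about 48 h. Yap1 mRNA was measured by qRT-PCR with primer probe set RTS36584 and normalised to RIBOGREEN total RNA. Values are % of untreated control; asterisked oligos target the amplicon region.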
# [1] = Table 39, SNU-449 cells, 10,000 cells per well, free uptake, 2,000 nM oligonucleotide, approx. 48 hours, RTS36584, normalized to RIBOGREEN, Yap1 mRNA relative to untreated control
# [2] = Table 51, Yap1 mRNA remaining as percent of untreated control (UT), SNU-449 cells, single dose
# [3] = Table 45, Yap1 mRNA as percent of untreated control, SNU-449 cells, single dose
# [4] = Table 52, Yap1 mRNA, modified oligonucleotides targeting SEQ ID NO: 1 and 2
# [5] = Table 49, Yap1 mRNA level relative to untreated control, modified oligonucleotides targeting SEQ ID NO.: 1 and 2
# [6] = Table 42 (separate experiment), SNU-449 cells, 10,000 cells per well, free uptake, 2,000 nM modified oligonucleotide, approximately 48 hours, RTS36584, normalized to RIBOGREEN, Yap1 mRNA relative to untreated control cells
# [7] = Yap1 mRNA, percent of untreated control, modified oligonucleotides targeting SEQ ID NO: 1 and 2, Table 47
# [8] = Table 40 (separate experiment), SNU-449 cells, 10,000 cells per well, free uptake, 2,000 nM oligonucleotide, approx. 48 hours, RTS36584, normalized to RIBOGREEN, Yap1 mRNA relative to untreated control
# [9] = Table 44 experiment, SNU-449 cells, 10,000 cells per well, free uptake, 2,000 nM, approximately 48 hours, RTS36584, Yap1 mRNA normalized to RIBOGREEN, relative to untreated control cells
# [10] = Table 50, Yap1 mRNA remaining as percent of untreated control (UT), SNU-449 cells, single dose
# [11] = Table 41, SNU-449 cells, 10,000 cells per well, free uptake, 2,000 nM modified oligonucleotide, approximately 48 hours, RTS36584, normalized to RIBOGREEN, Yap1 mRNA relative to untreated control cells
# [12] = Table 43 experiment, SNU-449 cells, 10,000 cells per well, free uptake, 2,000 nM, approximately 48 hours, RTS36584, Yap1 mRNA normalized to RIBOGREEN, relative to untreated control cells
# [13] = Table 48, Yap1 mRNA level relative to untreated control, modified oligonucleotides targeting SEQ ID NO.: 1 and 2
substance,measurement,setting,value
1198401 (kT*dT*dA*dA*dG*d[5mC]*dA*d[5mC]*dT*dT*dT*kT*eA*k[5mC]*eA*kT; antisense) [Compound 1198401],YAP1 (% UTC),[1],63 % UTC
1198397 (k[5mC]*dA*d[5mC]*dT*dT*dT*dT*dA*d[5mC]*dA*dT*kT*eA*kG*eG*kA; antisense) [Compound 1198397],YAP1 (% UTC),[1],17 % UTC
1197290 (kG*kA*kG*dG*mU*dA*dT*dA*dA*d[5mC]*dT*dG*dG*kG*k[5mC]*kA) [Compound 1197290],YAP1 (% UT),[2],37 % UT
1198946 (kA*kA*d[5mC]*dT*d[5mC]*dT*dT*dA*dT*dA*dT*kG*dG*kT*dT*kT; antisense) [Compound 1198946],YAP1 (% UTC),[3],72 % UTC
1200823 (k[5mC]*kT*kT*dT*dG*mG*dA*dA*dG*dA*dT*d[5mC]*dT*kG*kA*kA; antisense) [Compound 1200823],YAP1 (% UT),[4],46 % UT
1198353 (kA*kG*kT*dG*dT*dA*dT*dG*dT*d[5mC]*dA*dG*kA*eA*kG*eA; antisense) [Compound 1198353],YAP1 (% UT),[5],8 % UT
1198420 (kA*dT*dA*dT*dG*dG*dT*dT*dT*dT*dG*kT*eG*kT*eG*kT; antisense) [Compound 1198420],YAP1 (% UTC),[1],41 % UTC
1198694 (antisense kT*kA*dT*dG*dT*dA*dA*dT*dA*dT*dT*dG*k[5mC]*eA*kA*eT) [Compound 1198694],YAP1 (% UTC),[6],110 % UTC
1197194 (antisense kT*kT*kA*dG*dG*dA*dT*dG*d[5mC]*dA*dT*dG*dG*kT*kT*kT) [Compound 1197194],YAP1 (% UT),[7],37 % UT
1095397 (antisense kT*dG*dA*dG*dG*dT*dA*dT*dA*dA*d[5mC]*kT*eG*kG*eG*k[5mC]) [Compound 1095397],YAP1 (% UTC),[1],53 % UTC
1198760 (kT*eT*kA*dG*dG*dA*dT*dG*d[5mC]*dA*dT*dG*eG*eT*kT*kT; antisense) [Compound 1198760],YAP1 (% UTC),[8],91 % UTC
1095622 (antisense k[5mC]*kT*dG*dA*dG*dG*dT*dA*dT*dA*dA*e[5mC]*kT*eG*kG*eG) [Compound 1095622],YAP1 (% UTC),[9],44 % UTC
1198623 (k[5mC]*kT*kA*dA*dG*dT*dA*dA*dG*dG*dT*dT*kT*k[5mC]*k[5mC]*e[5mC]; antisense) [Compound 1198623],YAP1 (% UT),[10],9 % UT
1198414 (kA*dT*dT*dT*dA*dG*dG*dA*dT*dG*d[5mC]*kA*eT*kG*eG*kT) [Compound 1198414],YAP1 (% UTC),[1],20 % UTC
1197231 (antisense kA*kT*kG*dG*mA*dA*dA*dT*dT*dG*dT*d[5mC]*dT*k[5mC]*kA*kT) [Compound 1197231],YAP1 (% UT),[10],50 % UT
1197281 (kA*kT*kT*dG*mU*d[5mC]*dT*dC*dA*dT*dG*d[5mC]*d[5mC]*kT*kT*kA; antisense) [Compound 1197281],YAP1 (% UT),[10],42 % UT
1200839 (kT*kT*kA*dT*dA*mU*dG*dG*dT*dT*dT*dT*dG*kT*kG*kT; antisense) [Compound 1200839],YAP1 (% UT),[4],44 % UT
1198669 (antisense kA*kG*dG*dA*dT*dG*d[5mC]*dA*dT*dG*dG*dT*kT*eT*kT*eT) [Compound 1198669],YAP1 (% UTC),[11],61 % UTC
1198965 (k[5mC]*kT*dT*dT*dA*dA*dA*dG*dT*dG*dT*kA*dT*kG*dT*k[5mC]; antisense) [Compound 1198965],YAP1 (% UTC),[3],95 % UTC
1198247 (kA*kT*dT*d[5mC]*dA*dG*dA*dT*dT*dT*dA*eG*eG*eA*kT*kG; antisense) [Compound 1198247],YAP1 (% UTC),[12],99 % UTC
1198478 (antisense kA*kA*d[5mC]*dA*d[5mC]*dT*dG*dA*dG*dG*dT*eA*kT*eA*kA*e[5mC]) [Compound 1198478],YAP1 (% UTC),[9],60 % UTC
1198782 (antisense kT*eG*kT*dA*dA*dT*dA*dT*dT*dG*d[5mC]*dA*eA*eT*k[5mC]*kT) [Compound 1198782],YAP1 (% UTC),[8],61 % UTC
1198720 (kT*eG*kG*dA*dA*dA*dT*dT*dG*dT*d[5mC]*dT*e[5mC]*eA*kT*kG; antisense) [Compound 1198720],YAP1 (% UTC),[8],21 % UTC
1198795 (antisense kT*eA*kA*dG*dG*dT*dT*dT*d[5mC]*d[5mC]*d[5mC]*dA*eG*eA*kT*kT) [Compound 1198795],YAP1 (% UTC),[8],43 % UTC
1198531 (k[5mC]*kT*dT*dT*dA*dA*dA*dG*dT*dG*dT*eA*kT*eG*kT*e[5mC]; antisense) [Compound 1198531],YAP1 (% UTC),[9],21 % UTC
1198959 (kA*kG*dT*dG*dT*dA*dT*dG*dT*d[5mC]*dA*kG*dA*kA*dG*kA; antisense) [Compound 1198959],YAP1 (% UTC),[3],8 % UTC
1198239 (kA*kG*dG*dA*dT*dG*d[5mC]*dA*dT*dG*dG*eT*eT*eT*kT*kT) [Compound 1198239],YAP1 (% UTC),[6],39 % UTC
1198923 (kT*kT*dG*dG*dA*dA*dG*dA*dT*d[5mC]*dT*kG*dA*kA*dA*k[5mC]; antisense) [Compound 1198923],YAP1 (% UTC),[3],73 % UTC
1198468 (antisense kT*kT*dA*dG*dA*dG*dT*dA*dT*dG*dT*eG*kG*e[5mC]*kA*eA) [Compound 1198468],YAP1 (% UTC),[12],22 % UTC
1198861 (CAACTCTTATATGGTT; chemistry not fully specified) [Compound 1198861],YAP1 (% UT),[7],100 % UT
1198911 (kG*kA*dG*dG*dT*dA*dT*dA*dA*d[5mC]*dT*kG*dG*kG*d[5mC]*kA; antisense) [Compound 1198911],YAP1 (% UTC),[3],26 % UTC
1198543 (antisense kA*kT*kT*dG*dT*d[5mC]*dT*d[5mC]*dA*dT*dG*d[5mC]*k[5mC]*kT*kT*eA) [Compound 1198543],YAP1 (% UT),[5],15 % UT
1198862 (kG*kA*d[5mC]*dA*dA*d[5mC]*dT*d[5mC]*dT*dT*dA*kT*eA*kT*eG*kG; antisense) [Compound 1198862],YAP1 (% UT),[7],72 % UT
1197184 (antisense kA*kG*k[5mC]*dA*d[5mC]*dT*dT*dT*dT*dA*d[5mC]*dA*dT*kT*kA*kG) [Compound 1197184],YAP1 (% UT),[7],20 % UT
1198544 (antisense kA*kA*kT*dT*dG*dT*d[5mC]*dT*d[5mC]*dA*dT*dG*k[5mC]*k[5mC]*kT*eT) [Compound 1198544],YAP1 (% UT),[5],21 % UT
1198570 (antisense kG*k[5mC]*kA*d[5mC]*dT*dT*dT*dT*dA*d[5mC]*dA*dT*kT*kA*kG*eG) [Compound 1198570],YAP1 (% UT),[5],15 % UT
1198470 (antisense kT*kA*dT*dT*dA*dG*dA*dG*dT*dA*dT*eG*kT*eG*kG*e[5mC]) [Compound 1198470],YAP1 (% UTC),[12],17 % UTC
1197177 (antisense kA*kT*kT*dG*dT*d[5mC]*dT*d[5mC]*dA*dT*dG*d[5mC]*d[5mC]*kT*kT*kA) [Compound 1197177],YAP1 (% UT),[7],15 % UT
1198771 (kT*e[5mC]*kT*dT*dA*dT*dA*dT*dG*dG*dT*dT*eT*eT*kG*kT; antisense) [Compound 1198771],YAP1 (% UTC),[11],85 % UTC
1198708 (kT*kA*dA*dG*dT*dA*dA*dG*dG*dT*dT*dT*k[5mC]*e[5mC]*k[5mC]*eA; antisense) [Compound 1198708],YAP1 (% UTC),[6],34 % UTC
1198758 (kA*eT*kA*dG*dT*dG*d[5mC]*dT*dT*dT*dG*dG*eA*eA*kG*kA; antisense) [Compound 1198758],YAP1 (% UTC),[8],47 % UTC
1198289 (kG*kG*kA*dA*dA*dT*dT*dG*dT*d[5mC]*dT*d[5mC]*kA*eT*kG*e[5mC]; antisense) [Compound 1198289],YAP1 (% UT),[13],12 % UT
1198915 (k[5mC]*kT*dT*dT*dT*dA*d[5mC]*dA*dT*dT*dA*kG*dG*kA*dA*k[5mC]; antisense) [Compound 1198915],YAP1 (% UTC),[3],37 % UTC
1198905 (kA*kT*dA*dT*dT*dA*dG*dA*dG*dT*dA*kT*dG*kT*dG*kG; antisense) [Compound 1198905],YAP1 (% UTC),[9],5 % UTC
1197316 (kT*kA*kA*dG*mU*dA*dA*dG*dG*dT*dT*dT*d[5mC]*k[5mC]*k[5mC]*kA; antisense) [Compound 1197316],YAP1 (% UT),[2],46 % UT
1198297 (kA*kT*kT*dA*dG*dA*dG*dT*dA*dT*dG*dT*kG*eG*k[5mC]*eA; antisense) [Compound 1198297],YAP1 (% UT),[13],8 % UT
1200799 (kA*kT*kA*dT*dT*mA*dG*dA*dG*dT*dA*dT*dG*kT*kG*kG; antisense) [Compound 1200799],YAP1 (% UT),[2],27 % UT
1198425 (kA*d[5mC]*dT*d[5mC]*dT*dT*dA*dT*dA*dT*dG*kG*eT*kT*eT*kT; antisense) [Compound 1198425],YAP1 (% UTC),[8],35 % UTC
1198526 (kA*kA*dG*dT*dG*dT*dA*dT*dG*dT*d[5mC]*eA*kG*eA*kA*eG; antisense) [Compound 1198526],YAP1 (% UTC),[9],2 % UTC

# Source: patent US11214803B2, “Modulators of YAP1 expression” (Ionis Pharmaceuticals, Inc., priority 2019, dated 2022)
